Reference: US20230167109A1, “Aminopiperidine Amides, Derivatives, Compositions, and Uses Related to CXCR4 Modulation” (Emory University, priority 2020, published 2023)

What was measured:
CXCR4 = target: T1, CXCR4 (Homo sapiens, UniProt P61073); experiment: In vitro binding assay: blocking of CXCR4-targeted TN14003 conjugate on MDA-MB-231 cells
T1 construct: endogenous in cells; host or cells: MDA-MB-231
Protocol: (§1) EC (effective concentration) was calculated as the concentration at which the compound blocks >50% of CXCR4-targeted peptidomimetic conjugate (rhodamine Red X-TN14003). The inhibition % against the chemoattract, CXCL12 was determined by Matrigel invasion assay using 100 nM of compounds.
(§2) After computer evaluation of chemical libraries, seven compounds were tested by in vitro assays. The first binding assay quantified the affinity of compounds to the receptor by measuring the fluorescence of CXCR4-targeted peptidomimetic conjugate (rhodamine Red X-TN14003) after treating CXCR4-positive with each compound, which presents a lower fluorescent intensity for the compound with higher affinity. […] As a secondary orthogonal functional assay, Matrigel invasion assays were performed which measures the inhibitory efficacies of compounds against the chemotaxis between CXCR4-positive cells and the chemokine, CXCL12.
MDA-MB-231 cells were cultured in an eight-well slide chamber for two days. The cells were pre-incubated with the compounds for 15 min, and then fixed with 4% formaldehyde. […] Pictures were analyzed quantitatively with ImageJ. EC (effective concentration) is determined for the concentration at with the compound blocks >50% of CXCR4-targeted TN14003 conjugate using 1, 10, 100, and 1000 nM of compounds. […]

MDA-MB-231 cells = experiment: In vitro Matrigel invasion assay (chemotaxis towards CXCL12); type: cell-based; details: Homo sapiens, compound at 100 nM, 200 ng/ml CXCL12 as chemoattractant, 22 h
Protocol: as §1, §2
Matrigel invasion chambers were used for invasion assays. MDA-MB-231 cells were cultured on a layer of Matrigel in the upper chamber with compounds at 100 nM, while 200 ng/ml of CXCL12 was added in the lower chamber as a chemoattractant. […] Invading cells at the bottom of the Matrigel were fixed in methanol and stained with H&E. The percentage of invading cells was determined by counting the H&E-stained cells.

[1] = tested on: carrageenan-induced paw edema; experiment: In vivo anti-inflammation study, carrageenan-induced mouse paw edema model; details: 10 mg/kg i.p., once a day; mice sacrificed 74 h after carrageenan; n=5
Protocol: Acute paw inflammation was induced by subcutaneous injection of 50 μL of λ-carrageenan in left hind paw. The mice in the treatment group were all administered Z7R at 10 mg/kg i.p., while control animals received corresponding i.p. injection of vehicle. Acute inflammation was induced by subcutaneous injection of […], of λ-carrageenan (1% w/v in saline) into the left hind paws of male nude mice (6 weeks, 20 g, Jackson Laboratory, Strain JAZ 007850 J:NU); the other hind paw was used as the non-inflammation control. The compounds were administered intraperitoneally (i.p. injection), 30 min after carrageenan challenge with the dose of 10 mg/kg using the formulation of 10% DMSO and 40% (2-hydroxypropyl)-β-cyclodextrin (CD) in PBS, and then once a day following the initial dose. The mice were sacrificed 74 h after inflammation was induced and 2 h after the last injection of the compounds. The hind paws of the mice were photographed, the thicknesses of the paws were measured by a caliper, and the weights of the paws were measured by a balance after transecting at the level of the malleoli. To quantify the edema, the measured values of the untreated group were subtracted from the treated group. The inflammation suppression percentage was calculated by comparing the compound-treated groups to the control group (n=5). Fixed paw tissue was sliced and stained with H&E for histology study.

[2] = tested on: CXCR4-expressing infiltrating cells; experiment: Immunohistochemistry of paw tissue with anti-CXCR4 antibody; type: in vivo; details: paw tissue of Z7R-treated mouse vs inflamed tissue
Protocol: The avidin-biotin complex method was used to detect the proteins CXCR4 with anti-CXCR4 antibody (R&D System) at dilution 1:500. Formalin-fixed and paraffin-embedded tissues were deparaffinized and subsequently microwaved in 10 mM of sodium citrate buffer (pH 6.0) to retrieve antigens. After pre-incubation with hydrogen peroxide, avidin/biotin blocking kit (Invitrogen Co, CA), and horse serum (Vector Laboratories), the primary antibodies were applied overnight at 4° C. temperature. After incubation with the secondary antibody (rabbit anti-mouse biotinylated; Invitrogen Co, CA), the avidin-biotin complex was added and the enzyme activity was visualized with diaminobenzidine (ABC kit, Vector laboratories). Counterstaining was performed with hematoxylin.

T1 sequence (P61073 whole entry): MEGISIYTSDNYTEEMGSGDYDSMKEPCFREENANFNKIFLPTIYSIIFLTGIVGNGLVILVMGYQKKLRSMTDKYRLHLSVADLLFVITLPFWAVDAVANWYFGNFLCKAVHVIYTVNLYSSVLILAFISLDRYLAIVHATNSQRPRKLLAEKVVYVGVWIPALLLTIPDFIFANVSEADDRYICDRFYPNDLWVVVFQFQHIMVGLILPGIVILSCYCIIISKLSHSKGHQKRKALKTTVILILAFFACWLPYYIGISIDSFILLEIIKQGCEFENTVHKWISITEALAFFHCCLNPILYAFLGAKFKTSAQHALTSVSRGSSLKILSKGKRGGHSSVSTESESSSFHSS

| SMILES | IC50 (CXCR4; fitted with GraphPad Prism 5, read-out: affinity IC50) [nM] | inhibition at 0.1 µM (MDA-MB-231 cells) [%] | anti-inflammatory activity: reduction of edema (paw) weight vs untreated mice [1] [%] | CXCR4-expressing infiltrating cells in carrageenan-induced inflammatory tissue [2] | EC50 (CXCR4; compounds tested at 1, 10, 100 and 1000 nM, read-out: binding affinity (EC, effective concentration: concentration at which the compound blocks more than 50% of rhodamine Red X-TN14003)) [nM] |
| --- | --- | --- | --- | --- | --- |
| N=C(N)NCCCC(N)C(=O)NC1CCN(C(=O)CCn2ccc3ccncc32)CC1 (stereo not drawn) [Z7R, N-(1-(3-(pyrrolo[2,3-c]pyridin-1-yl)propanoyl)piperidin-4-yl)-2-amino-5-guanidinopentanamide] | 1.25 | 78.5 | 50 | reduced presence of CXCR4s | – |
| NC(C(=O)NC1CCN(C(=O)CCn2ccc3ccncc32)CC1)c1ccccc1 (stereo not drawn) [ZINC 72372983, N-(1-(3-(pyrrolo[2,3-c]pyridin-1-yl)propanoyl)piperidin-4-yl)-2-amino-2-phenylacetamide] | – | 69 | – | – | 100 |
